According to patent US20190216767A1, “TOPICAL THERAPY FOR THE TREATMENT OF SKIN KERATOSES USING NANOPARTICLES OF TAXANES” (DFB SORIA, LLC, priority 2017, published 2019):
Like-named read-outs stand apart in the source and are kept apart here.

What was measured:
[1] = Particle size of paclitaxel nanoparticles lots (ACCUSIZER 780); type: physicochemical; settings: nanoparticle API lot
Protocol: Max. Concentration: 9000 particles/mL, No. containers: 1, Sensor Range: Summation, Lower Detection Limit: 0.5 μm, Flow Rate: 30 mL/min, No. Analysis pulls: 4, Time between pulls: 1 sec, Pull volume: 10 mL, Tare Volume: 1 mL, Prime volume: 1 mL, Include First Pull: Not Selected.
Vortexed for 5-10 minutes and sonicated in a water batch for 1 minute.
Filled a plastic bottle with filtered (0.22 μm) 0.1% w/w SDS solution and analyzed the Background.

[2] = Specific surface area (SSA) by BET isotherm; type: physicochemical; settings: BET isotherm method, nanoparticle API lot
Description: (§1) Taxane nanoparticles produced by various supercritical carbon dioxide particle size reduction methods can have unique physical characteristics as compared to taxane nanoparticles produced by conventional particle size reduction methods using physical impacting or grinding, e.g., wet or dry milling, micronizing, disintegrating, comminuting, microfluidizing, or pulverizing. […] This bulk density range is generally lower than the bulk density of taxane particles produced by conventional means, and the SSA is generally higher than the SSA of taxane particles produced by conventional means. […] As used herein, the “specific surface area (SSA)” is the total surface area of the taxane nanoparticle per unit of taxane mass as measured by the Brunauer-Emmett-Teller (“BET”) isotherm by the following method: a known mass between 200 and 300 mg of the analyte is added to a 30 mL sample tube. […] The automated test is then carried out using the BETWIN® software package and the surface area of each sample is subsequently calculated. The bulk density measurement can be conducted by pouring the taxane nanoparticles into a graduated cylinder without tapping at room temperature, measuring the mass and volume, and calculating the bulk density.

[3] = Bulk density (not tapped); type: physicochemical; settings: nanoparticle API lot
Description: as §1

[4] = Solubility of paclitaxel in various solvents (HPLC); type: physicochemical
Protocol: Step “d” was continued for each vial for a total of 48 hours.

[5] = methanol/water 15/85 (v/v), 37° C., pH 7, 75 rpm, cited from earlier work
[6] = listed as paclitaxel nanoparticles lot used in the formulas listed in Tables 16-19
[7] = listed as paclitaxel nanoparticles lot used in the formulas listed in Table 3

CC(=O)O[C@H]1C(=O)[C@@]2(C)[C@H]([C@H](OC(=O)c3ccccc3)[C@]3(O)C[C@H](OC(=O)[C@H](O)[C@@H](NC(=O)c4ccccc4)c4ccccc4)C(C)=C1C3(C)C)[C@]1(OC(C)=O)CO[C@@H]1C[C@@H]2O [Paclitaxel nanoparticles lot used in formulas listed in Tabl] [listing 1 of 2 here]
Particle size (number-weighted differential distribution) Mean [1]: 0.83 μm
specific surface area (SSA) [2, 6]: 26.72 m^2/g
bulk density (not-tapped) [3, 6]: 0.09 g/mL

CC(=O)O[C@H]1C(=O)[C@@]2(C)[C@H]([C@H](OC(=O)c3ccccc3)[C@]3(O)C[C@H](OC(=O)[C@H](O)[C@@H](NC(=O)c4ccccc4)c4ccccc4)C(C)=C1C3(C)C)[C@]1(OC(C)=O)CO[C@@H]1C[C@@H]2O [Paclitaxel nanoparticles lot used in formulas listed in Tabl] [listing 2 of 2 here]
Particle size (number-weighted differential distribution) Mean [1]: 0.861 μm
Particle size (number-weighted differential distribution) Median [1]: 0.710 μm
Particle size (number-weighted differential distribution) Mode [1]: 0.572 μm
specific surface area (SSA) [2, 7]: 41.24 m^2/g
bulk density (not-tapped) [3, 7]: 0.05 g/mL

CC(=O)O[C@H]1C(=O)[C@@]2(C)[C@H]([C@H](OC(=O)c3ccccc3)[C@]3(O)C[C@H](OC(=O)[C@H](O)[C@@H](NC(=O)c4ccccc4)c4ccccc4)C(C)=C1C3(C)C)[C@]1(OC(C)=O)CO[C@@H]1C[C@@H]2O [Paclitaxel, paclitaxel]
Paclitaxel Solubility at RT ([4]; in Benzyl Alcohol, NF): 17.02% w/w
Paclitaxel Solubility at RT ([4]; in Diethylene Glycol Monoethyl Ether, NF (TRANSCUTOL P)): 33.10% w/w
Paclitaxel Solubility at RT ([4]; in Diisopropyl Adipate (CERAPHYL 230)): 3.51% w/w
Paclitaxel Solubility at RT ([4]; in Dimethyl Isosorbide): 38.22% w/w
Paclitaxel Solubility at RT ([4]; in Hexylene Glycol): 4.07% w/w
Paclitaxel Solubility at RT ([4]; in Isopropyl Myristate, NF): 0.048% w/w
Paclitaxel Solubility at RT ([4]; in Medium Chain Triglycerides, NF): 0.32% w/w
Paclitaxel Solubility at RT ([4]; in Mineral Oil, USP (heavy)): 0.3 ppm
Paclitaxel Solubility at RT ([4]; in Polyethylene Glycol 400, NF): 22.30% w/w
Paclitaxel Solubility at RT ([4]; in Propylene Carbonate): 4.74% w/w
Paclitaxel Solubility at RT ([4]; in Propylene Glycol, USP): 0.88% w/w
Paclitaxel Solubility at RT ([4]; in Purified Water, USP): <0.05 ppm
Paclitaxel Solubility at RT ([4]; in Purified Water, USP, listed as paclitaxel): less than 0.05 ppm
Paclitaxel Solubility at RT ([4]; in Super Refined Oleic Acid, NF): 0.041% w/w
Paclitaxel Solubility at RT ([4]; in Super Refined Oleyl Alcohol, NF): 0.38% w/w

CC(=O)O[C@@]12CO[C@@H]1C[C@H](O)[C@@]1(C)C(=O)[C@H](O)C3=C(C)[C@@H](OC(=O)[C@H](O)[C@@H](NC(=O)OC(C)(C)C)c4ccccc4)C[C@@](O)([C@@H](OC(=O)c4ccccc4)[C@H]21)C3(C)C [Docetaxel nanoparticles, docetaxel]
dissolution rate, % dissolved in 30 minutes ([5]; nanoparticles made by milling): 9%
dissolution rate, % dissolved in 30 minutes ([5]; nanoparticles made by the supercritical carbon dioxide method): 27%
